Like-named read-outs stand apart in the source and are kept apart here.
Columns and labels:
ETB = biological target: T1, ETB (Rattus norvegicus, UniProt P21451); conditions: for inhibition at 10 µM: read-out: ERBA-B % inhibition
T1 sequence (P21451 27-442): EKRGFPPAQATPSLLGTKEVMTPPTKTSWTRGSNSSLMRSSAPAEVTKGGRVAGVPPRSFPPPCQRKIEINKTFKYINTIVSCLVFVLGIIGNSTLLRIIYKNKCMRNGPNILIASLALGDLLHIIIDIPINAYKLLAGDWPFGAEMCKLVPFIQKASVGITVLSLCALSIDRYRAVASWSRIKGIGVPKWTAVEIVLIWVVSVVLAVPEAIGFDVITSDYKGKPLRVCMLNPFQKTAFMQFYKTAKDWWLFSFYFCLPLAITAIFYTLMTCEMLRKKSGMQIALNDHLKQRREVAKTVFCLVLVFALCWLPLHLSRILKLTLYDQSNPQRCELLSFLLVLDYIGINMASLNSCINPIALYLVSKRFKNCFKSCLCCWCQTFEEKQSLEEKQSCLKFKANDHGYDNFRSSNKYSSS
Experimental: The tissue is made up of 20 mM tris(hydroxymethyl)aminomethane hydrochloride (Trizma) buffer, 2 mM ethylenediaminetetra acetate, 100 μM phenylmethylsulfonyl fluoride.
First, thaw one aliquot of frozen rat cerebellar membranes (2 mg protein in 0.5 mL). Next, add 0.5 mL membrane aliquot to 4.5 mL cold tissue buffer, polytron at 7,500 revolutions per minute for 10 seconds. Finally, dilute tissue suspension 1/100 (0.1 mL suspension+9.9 mL tissue buffer), polytron again, and place ice.
Mix in 150 μL of tissue to each tube, vortex briefly, then tap to force all liquids to bottom (total assay volume=250 μL). Then place the tubes in a 37° C. water bath for 2 hours.
Add 2.5 mL cold wash buffer (50 mM Trizma buffer) to each tube, filter, and then wash tube with additional 2.5 mL wash buffer and add to filter. Finally, wash filters with an additional 2.5 mL of cold wash buffer.
Count filters for radioactivity in gamma counter.

ETA = biological target: T2, ETA (Oryctolagus cuniculus, UniProt A5A8K3); conditions: for inhibition at 10 µM: read-out: ERBA-A % inhibition
T2 sequence (A5A8K3 21-427): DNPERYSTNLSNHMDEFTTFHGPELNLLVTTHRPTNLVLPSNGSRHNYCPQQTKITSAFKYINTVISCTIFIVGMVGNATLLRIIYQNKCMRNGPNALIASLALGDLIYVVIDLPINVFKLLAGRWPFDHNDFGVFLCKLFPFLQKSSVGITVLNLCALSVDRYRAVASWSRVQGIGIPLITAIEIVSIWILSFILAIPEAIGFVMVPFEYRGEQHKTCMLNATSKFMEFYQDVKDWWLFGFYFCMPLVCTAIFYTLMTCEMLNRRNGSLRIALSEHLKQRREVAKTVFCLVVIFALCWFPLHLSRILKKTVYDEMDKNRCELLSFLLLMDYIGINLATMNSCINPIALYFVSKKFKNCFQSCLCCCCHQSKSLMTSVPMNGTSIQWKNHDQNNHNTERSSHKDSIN

human ETB receptor = biological target: T3, human ETB receptor (Homo sapiens, UniProt P24530); assay: ERBA-B: [125I]-ET-1 binding, recombinant human ETB receptor expressed in CHO-K1 cells; conditions: human cloned ETB receptor, read-out: ERBA-B IC50, human cloned receptor data
T3 construct: expressed in transfected cells; host or cells: CHO-K1 cells, pRc-CMW (so in the source) expression vector, electroporation; membranes used
T3 sequence (P24530 27-442): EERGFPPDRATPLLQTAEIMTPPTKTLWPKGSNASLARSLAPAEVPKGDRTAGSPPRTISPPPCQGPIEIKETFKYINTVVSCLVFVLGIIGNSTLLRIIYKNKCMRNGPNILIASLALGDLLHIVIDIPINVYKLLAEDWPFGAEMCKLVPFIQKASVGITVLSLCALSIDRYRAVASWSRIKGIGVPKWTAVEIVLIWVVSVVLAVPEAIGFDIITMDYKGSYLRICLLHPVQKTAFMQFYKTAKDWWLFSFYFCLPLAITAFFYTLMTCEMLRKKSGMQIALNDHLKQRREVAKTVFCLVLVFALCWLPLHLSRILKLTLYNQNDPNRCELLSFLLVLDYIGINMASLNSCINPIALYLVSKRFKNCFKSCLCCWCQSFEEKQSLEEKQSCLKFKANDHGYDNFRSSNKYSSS

[1] = read-out: ERBA-B IC50, [125I]-ET-1, rat cerebellar membranes
[2] = ERBA-A IC50, [125I]-ET-1, rabbit renal artery vascular smooth muscle cells

| Structure (SMILES) | IC50 (ETB) [µM] | IC50 (ETA; [2]) [nM] | also measured |
| --- | --- | --- | --- |
| CC(C)c1ccc(C2=C(Cc3ccccc3)C(O)(c3ccc(Cl)cc3)OC2=O)cc1 (racemic) [Example 4, 2(5H)-Furanone, 5-(4-chlorophenyl)-5-hydroxy-3-[4-(1-methylethyl)phenyl]-4-(phenylmethyl)- , (±)-] |  |  | inhibition at 10 µM (ETB): 52%; inhibition at 10 µM (ETA): 34% |
| CC(C)c1ccc(C2=C(Cc3cccc4ccccc34)C(O)(c3ccc(Cl)cc3)OC2=O)cc1 (racemic) [Example 40, 2(5H)-Furanone, 5-(4-chlorophenyl)-5-hydroxy-3-[4-(1-methylethyl)phenyl]-4-(1-naphthalenylmethyl)-, (±)-] |  |  | inhibition at 10 µM (ETB): 22% |
| CC(C)c1ccc(C2=C(Cc3ccc4c(c3)OCO4)C(O)(c3ccc(Cl)cc3)OC2=O)cc1 (racemic) [Example 42, 2(5H)-Furanone, 4-(1,3-benzodioxol-5-ylmethyl)-5-(4-chlorophenyl)-5-hydroxy-3-[4-(1-methylethyl)phenyl]-, (±)-] |  |  | inhibition at 10 µM (ETB): 54%; inhibition at 10 µM (ETA): 36% |
| O=C1OC(O)(c2ccc(Cl)cc2)C(Cc2ccc3ccccc3c2)=C1c1ccc2c(c1)OCO2 (racemic) [Example 43, 2(5H)-Furanone, 3-(1,3-benzodioxol-5-yl)-5-(4-chlorophenyl)-5-hydroxy-4-(2-naphthalenylmethyl)-, (±)-] |  |  | IC50 (ETB; [1]): 7 µM; IC50 (ETA; read-out: ERBA-A IC50, [125I]-ET-1, rabbit renal artery vascular smooth muscle cells): 2700 nM |
| O=C1OC(O)(c2ccc(Cl)cc2)C(Cc2cccc3ccccc23)=C1c1ccc2c(c1)OCO2 (racemic) [Example 44, 2(5H)-Furanone) 3-(1,3-benzodioxol-5-yl)-5-(4-chlorophenyl)-5-hydroxy-4-(1-naphthalenylmethyl)-, (±)-] |  | 2800 | inhibition at 10 µM (ETB): 35% |
| CC(C)c1ccc(CC2=C(c3ccc4c(c3)OCO4)C(=O)OC2(O)c2ccc(Cl)cc2)cc1 (racemic) [Example 45, 2(5H)-Furanone, 3-(1,3-benzodioxol-5-yl)-5-(4-chlorophenyl)-5-hydroxy-4-[[4-(1-methylethyl)phenyl]methyl]-, (35)-] | 9.1 | 1500 |  |
| O=C1OC(O)(c2ccc(Cl)cc2)C(Cc2ccc3c(c2)OCO3)=C1c1ccc2c(c1)OCO2 (racemic) [Example 46, 2(5H)-Furanone, 3-(1,3-benzodioxol-5-yl)-4-(1,3-benzodioxol-5-ylmethyl)-5-(4-chlorophenyl)-5-hydroxy-, (±)-] | 6.4 | 3600 |  |
| O=C1OC(O)(c2ccc(Cl)cc2)C(Cc2ccccc2)=C1c1ccc(Cl)c(Cl)c1 (racemic) [Example 61, 2(5H)-Furanone, 5-(4-chlorophenyl)-3-(3,4-dichlorophenyl)-5-hydroxy-4-(phenylmethyl)-, (±)-] | 11 | 11000 |  |
| Cn1cc(CC2=C(c3ccc4c(c3)OCO4)C(=O)OC2(O)c2ccc(Cl)cc2)c2ccccc21 (racemic) [Example 66, 2 (5H)-Furanone, 3-(1,3-benzodioxol-5-yl)-5-(4-chlorophenyl)-5-hydroxy-4-[(1-methyl-1H-indol-3-yl)methyl], (±)-] | 7.4 | 2400 |  |
| COc1ccc(C2=C(Cc3ccc(N(C)C)cc3)C(O)(c3ccc(Cl)cc3)OC2=O)cc1OC (racemic) [Example 71, 2(5H)-Furanone, 5-(4-Chlorophenyl)-3-(3,4-dimethoxyphenyl)-4-[[4-(dimethylamino)phenyl]methyl]-5-hydroxy-, (±)-] | 4.2 |  |  |
| O=C1OC(O)(c2ccc(Cl)cc2)C(Cc2ccccc2)=C1c1ccc2c(c1)OCO2 (centres unmarked) [Example 39, 2(5H)-Furanone, 3-(1,3-benzodioxol-5-yl)-5-(4-chlorophenyl)-5-hydroxy-4-(phenylmehyl)-] | 4.2 |  |  |
| COc1ccc(CC2=C(c3ccc4c(c3)OCO4)C(=O)OC2(O)c2ccc(OC)cc2)cc1 (centres unmarked) [Example 77, 3-Benzo[1,3]dioxol-5-yl-5-hydroxy-4-(4-methoxybenzyl)-5-(4-methoxyphenyl)-5 H-furan-2-one] |  |  | IC50 (ETB; [1]): 0.22 µM |
| COc1ccc(C2(O)OC(=O)C(c3ccc4c(c3)OCO4)=C2Cc2ccc(Cl)cc2)cc1 (centres unmarked) [Example 81, 3-Benzo[1,3]dioxol-5-yl-4-(4-chlorobenzyl)-5-hydroxy-5-(4-methoxophenyl)-5H -furan-2-one] |  |  | IC50 (ETB; [1]): 0.72 µM |
| COc1ccc(C2(O)OC(=O)C(c3ccc4c(c3)OCO4)=C2CC2CCCC(C(=O)O)C2)cc1 (centres unmarked) [Example 403, 3-[4-Benzo[1,3]dioxol-5-yl-2-hydroxy-2-(4-methoxyphenyl)-5-oxo-2,5-dihydro-furan-3-ylmethyl]-cyclohexanecarboxylic acid] |  | 250 | IC50 (human ETB receptor): 3 µM |

More lines, main results first:

| IC50 (ETB) [µM] | IC50 (ETA; [2]) [nM] | Structure (SMILES) | also measured |
| --- | --- | --- | --- |
| 9 |  | CC(C)c1ccc(C2=C(Cc3ccc4ccccc4c3)C(O)(c3ccc(Cl)cc3)OC2=O)cc1 (racemic) [Example 41, 2(5H)-Furanone, 5-(4-chlorophenyl)-5-hydroxy-3-[4-(1-methylethyl)phenyl]-4-(2-naphthalenylmethyl)-, (±)-] | inhibition at 10 µM (ETA): 37% |
| 18 |  | CN(C)c1ccc(C2=C(Cc3ccc4c(c3)OCO4)C(O)(c3ccc(Cl)cc3)OC2=O)cc1 (racemic) [Example 54, 2(5H)-Furanone, 4-(1,3-benzodioxol-5-ylmethyl)-5-(4-chlorophenyl)-3-[4-(dimethylamino)phenyl]-5-hydroxy-, (±)-] |  |
| 21 |  | CN(C)c1ccc(CC2=C(c3ccc(N(C)C)cc3)C(=O)OC2(O)c2ccc(Cl)cc2)cc1 (racemic) [Example 55, 2(5H)-Furanone, 5-(4-chlorophenyl)-3-[4-(dimethylamino)phenyl]-4-[[4-(dimethylamino)phenyl]methyl]-5-hydroxy-, (±)-] |  |
| 6 | 9300 | COc1ccc(C2=C(Cc3ccc4c(c3)OCO4)C(O)(c3ccc(Cl)cc3)OC2=O)cc1OC (racemic) [Example 65, 2(5H)-Furanone, 4-(1,3-benzodioxol-5-ylmethy)-5-(4-chlorophenyl)-3-(3,4-dimethoxyphenyl)-5-hydroxy, (±)-] |  |
| 6.3 | 7100 | COc1ccc(C2=C(Cc3ccccc3)C(O)(c3ccc(Cl)cc3)OC2=O)cc1OC (racemic) [Example 67, 2(5H)-Furanone, 5-(4-chlorophenyl)-3-(3,4-dimethoxyphenyl)-5-hydroxy-4-(phenylmethyl)-, (±)-] |  |
| 9.8 | 1700 | COc1ccc(CC2=C(c3ccc(OC)c(OC)c3)C(=O)OC2(O)c2ccc(Cl)cc2)cc1OC (racemic) [Example 68, 2(5H)-Furanone, 5-(4-chlorophenyl)-3-(3,4-dimethoxyphenyl)-4-[(3,4-dimethoxyphenyl)methyl]-5-hydroxy-, (±)-] |  |
| 8.4 | 9100 | O=C1OC(O)(c2ccc(Cl)cc2)C(Cc2ccc3c(c2)OCO3)=C1c1ccc(Cl)c(Cl)c1 (racemic) [Example 69, 2(5H)-Furanone, 4-(1,3-benzodioxol-5-ylmethyl)-5-(4-chlorophenyl)-3-(3,4-dichlorophenyl)-5-hydroxy-, (±)-] |  |
| 26 |  | O=C1OC(O)(c2ccccc2)C(Cc2ccccc2)=C1c1ccc2c(c1)OCO2 (centres unmarked) [Example 24, 2(5H)-Furanone, 3-(1,3-benzodioxol-5-yl)-5-hydroxy-5-phenyl-4-(phenylmethyl)-] |  |
|  | 58 | COc1ccc(C2(O)OC(=O)C(c3ccc4c(c3)OCO4)=C2Cc2ccc(C(C)C)cc2)cc1 (centres unmarked) [Example 404, 3-Benzo[1,3]dioxol-5-yl-5-hydroxy-4-(4-isopropylbenzyl)-5-(4-methoxy-phenyl)-5H-furan-2-one] | IC50 (human ETB receptor): > 2.5 µM |

— patent publication US5691373A, “Nonpeptide endothelin antagonists I” (Warner-Lambert Company, priority 1995, dated 1997)
